Results published in patent US20030018008A1, “Formulations of adenosine a1 agonists” (priority 1999, published 2003).

Tested on: carrageenan-induced oedema and allodynia
Test: Carrageenan model: weight bearing (allodynia) and paw oedema of the inflamed hind paw
Format: in vivo, rat
Conditions: for % Weight on inflammed paw (Allodynia): 3 h after intraplantar 2% carrageenan, 50% = no pain; for % Inhibition of carrageenan-induced allodynia / % Inhibition of carrageenan-induced oedema: compared to vehicle control; for % Inhibition of carrageenan-induced oedema: plethysmometer
Method: Carrageenan model for (2S, 3S, 4R, 5R)-2-(5 tert-butyl-[1,3,4]oxadiazol-2-yl)-5-[6-(4-chloro-2-fluoro-phenylamino)-purin-9-yl]-tetrahvdro-furan-3,4-diol (Adenosine A1 agonist) and alosetron.
Male Random Hooded rats (180-220 g) were used. The test compound or vehicle was administered 30 mins before the 2nd test compound or vehicle. The test compounds and vehicles used were: (i) Compound A in 1% DMSO, 66% Peg400, 33% distilled water and (ii) alosetron in saline. Both test compounds were administered via the oral route. After a further 30 mins 100 ul of 2% carrageenan was injected intraplantar into the left hind paw and the animals were then returned to their cages. Three hours later, behavioural testing of the carrageenan-induced decrease in weight on the inflamed left hind paw (% weight on the inflammed left hind paw) and associated oedema was assessed. Weight bearing was measured using the dual channel weight averager and paw oedema was assessed using a plethysmometer. The dual channel weight averager is commercially available and is described in the following abstract: Validation of the dual channel weight averager as an instrument for the measurement of inflammatory pain, N. M. Clayton et al., 1997 British Journal Pharmacol. 120, 219P.
Note: In the absense of pain, weight on the hind paws would be evenly distributed, i.e. 50% on each hind paw.
Note: Oedema is the presence of abnormally large amounts of fluid in the intercellular tissue spaces of the body and in the present example is used to provide a measure of inflammation (or anti-oedemic). Allodynia is a sensation of pain resulting from a non-injurious stimulus such as normal heat, cold or pressure on skin and in the present example the weight-bearing (allodynia) effect in used to provide a measure of analgesia.

Row | Compound | % Weight on inflammed paw (Allodynia) (Alosetron 0.3 mg/kg oral) [%] | % Inhibition of carrageenan-induced allodynia (Alosetron 0.3 mg/kg oral) [%] | % Inhibition of carrageenan-induced oedema (Alosetron 0.3 mg/kg oral) [%] | % Weight on inflammed paw (Allodynia) (Compound A 0.4 mg/kg oral) [%] | % Inhibition of carrageenan-induced allodynia (Compound A 0.4 mg/kg oral) [%] | % Inhibition of carrageenan-induced oedema (Compound A 0.4 mg/kg oral) [%]
1 | Cc1[nH]cnc1CN1CCc2c(c3ccccc3n2C)C1=O [Alosetron, 2,3,4,5-tetrahydro-5-methyl-2-[(5-methyl-1H-imidazol-4-yl)methyl]-1H-pyrido[4,3-b]indol-1-one] | 33.6 ± 5.5 | 45.1 ± 18.4 | 28.2 ± 6.3 | – | – | –
2 | CC(C)(C)c1nnc([C@H]2O[C@@H](n3cnc4c(Nc5ccc(Cl)cc5F)ncnc43)[C@H](O)[C@@H]2O)o1 [Compound A, (2S, 3S, 4R, 5R)-2-(5 tert-butyl-[1,3,4]oxadiazol-2-yl)-5-[6-(4-chloro-2-fluoro-phenylamino)-purin-9-yl]-tetrahydro-furan-3,4-diol] | – | – | – | 20.7 ± 4.3 | 2.1 ± 14.3 | −3.1 ± 8.2
